Data set [1] concerns the target T1, P-glycoprotein (ABCB1, MDR1) (Homo sapiens, UniProt P08183). Nature of the data set: Inhibition of P-glycoprotein, human L-MDR1 expressed in LLC-PK1 epithelial cells using calcein-AM polarisation assay. The conditions noted are these: LLC-PK1 epithelial cells expressing human MDR1 (L-MDR1), probe calcein-AM.
For data set [2], the target named is T1, P-glycoprotein (ABCB1, MDR1). Nature of the data set: TP_TRANSPORTER: inhibition of Calcein-AM efflux in MDR1-expressing LLC-PK1 cells. The conditions noted are these: probe calcein-AM.

The structures appear in SMILES notation. pIC50: −log10 of the molar value.

T1 sequence (P08183 whole entry): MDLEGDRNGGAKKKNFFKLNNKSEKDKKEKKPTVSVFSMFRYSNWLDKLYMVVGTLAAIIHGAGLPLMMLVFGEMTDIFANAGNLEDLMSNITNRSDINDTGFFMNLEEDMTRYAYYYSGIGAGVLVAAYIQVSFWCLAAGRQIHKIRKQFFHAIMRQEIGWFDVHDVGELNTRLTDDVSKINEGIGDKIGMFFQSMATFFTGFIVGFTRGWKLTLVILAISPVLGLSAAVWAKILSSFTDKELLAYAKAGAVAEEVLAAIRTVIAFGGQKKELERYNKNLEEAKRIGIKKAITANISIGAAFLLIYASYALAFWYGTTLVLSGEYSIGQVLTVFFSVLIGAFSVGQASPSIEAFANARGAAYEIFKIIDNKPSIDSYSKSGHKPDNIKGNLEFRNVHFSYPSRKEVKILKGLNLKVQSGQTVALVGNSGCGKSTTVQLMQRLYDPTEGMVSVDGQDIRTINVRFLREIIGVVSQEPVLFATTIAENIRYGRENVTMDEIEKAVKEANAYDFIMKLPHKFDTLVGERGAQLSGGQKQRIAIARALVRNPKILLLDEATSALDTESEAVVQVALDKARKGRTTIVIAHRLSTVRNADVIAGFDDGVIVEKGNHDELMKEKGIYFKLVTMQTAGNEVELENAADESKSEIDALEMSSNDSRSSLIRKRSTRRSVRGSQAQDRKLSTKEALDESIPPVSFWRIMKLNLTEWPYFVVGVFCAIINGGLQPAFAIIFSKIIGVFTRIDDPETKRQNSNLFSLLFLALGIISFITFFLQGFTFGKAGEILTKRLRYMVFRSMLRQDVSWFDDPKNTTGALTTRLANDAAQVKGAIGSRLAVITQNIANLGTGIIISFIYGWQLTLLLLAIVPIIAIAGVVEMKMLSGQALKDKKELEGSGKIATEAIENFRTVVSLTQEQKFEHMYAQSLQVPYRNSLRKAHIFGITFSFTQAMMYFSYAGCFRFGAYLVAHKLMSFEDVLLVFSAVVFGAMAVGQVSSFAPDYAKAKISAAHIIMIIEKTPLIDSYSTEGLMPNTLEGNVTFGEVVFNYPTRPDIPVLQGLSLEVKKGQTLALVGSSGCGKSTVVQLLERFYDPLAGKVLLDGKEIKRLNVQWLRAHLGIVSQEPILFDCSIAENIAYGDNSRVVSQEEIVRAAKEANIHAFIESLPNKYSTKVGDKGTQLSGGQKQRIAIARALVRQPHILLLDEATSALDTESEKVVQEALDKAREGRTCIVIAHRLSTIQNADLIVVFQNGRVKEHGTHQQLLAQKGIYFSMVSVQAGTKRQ

`CC[C@H](C)[C@H]1O[C@]2(CC[C@@H]1C)C[C@@H]1C[C@@H](C/C=C(\C)[C@@H](O[C@H]3C[C@H](OC)[C@@H](O[C@H]4C[C@H](OC)[C@@H](O)[C@H](C)O4)[C@H](C)O3)[C@@H](C)/C=C/C=C3\CO[C@@H]4[C@H](O)C(C)=C[C@@H](C(=O)O1)[C@]34O)O2` [ABAMECTIN]: the pIC50 in data set [1] and in data set [2] was 7.00 throughout.

The pIC50 is −log10 of the IC50, conventionally taken in molar units.
